US20260209247A1, “Substituted Tricyclic Compounds” (Lupin Limited, priority 2019, published 2026)
pIC50: −log10 of the molar value.

How the values were obtained:
[1] = target: T1, protein-protein interaction between hSOS1 and hKRASG12C (Homo sapiens, UniProt Q07889); test: KRAS-SOS1 interaction assay (HTRF); assay type: binding; conditions: GST-hSOS1 564-1049aa, HIS-hKRASG12C, read-out: KRAS-SOS1 Interaction inhibition IC50
T1 construct: GST-hSOS1, 564-1049aa expressed and purified in-house
T1 sequence (Q07889 564-1049): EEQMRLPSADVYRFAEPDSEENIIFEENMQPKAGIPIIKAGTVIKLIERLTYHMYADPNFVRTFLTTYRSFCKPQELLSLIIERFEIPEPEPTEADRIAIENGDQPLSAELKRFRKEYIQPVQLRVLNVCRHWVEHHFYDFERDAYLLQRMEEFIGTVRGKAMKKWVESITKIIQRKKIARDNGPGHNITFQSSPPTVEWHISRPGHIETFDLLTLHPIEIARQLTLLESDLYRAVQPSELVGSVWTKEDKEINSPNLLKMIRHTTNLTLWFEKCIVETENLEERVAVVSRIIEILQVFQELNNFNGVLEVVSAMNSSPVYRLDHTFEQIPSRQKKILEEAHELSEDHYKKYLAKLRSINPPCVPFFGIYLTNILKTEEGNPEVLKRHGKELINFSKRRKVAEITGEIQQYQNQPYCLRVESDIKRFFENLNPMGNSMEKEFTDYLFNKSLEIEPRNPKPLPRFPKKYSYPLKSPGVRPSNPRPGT
In short: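 GST-hSOS1 (564-1049aa) at 10-50 nM working solution pre-incubated with compounds 10 min at 20° C in HEPES pH 7.4 buffer with EDTA, DTT, BSA and Igepal. HIS-hKRASG12C (100-300 nM working solution) added for 30-60 min, then anti-GST-d2/anti-HIS-Tb detection; percent inhibition from the 665/620 nm ratio.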

[2] = target: T2, nucleotide exchange on hKRASG12C mediated by hSOS1 (Homo sapiens, UniProt Q07889); test: Guanine nucleotide exchange assay (GNEA, HTRF); assay type: biochemical; conditions: HIS-hSOS1 564-1049aa mediated GTP loading onto GST-hKRASG12C 1-169aa, read-out: Guanine nucleotide exchange inhibition IC50
T2 construct: HIS-hSOS1, 564-1049aa mediated GTP loading onto GST-hKRASG12C; His (N); made in house
T2 sequence (Q07889 564-1049): T1 sequence (Q07889 564-1049)
In short: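 Compounds were pre-incubated 10 min at 20 °C with HIS-hSOS1 (564-1049aa) and EDA-GTP-DY-647P1 (working solution 10-50 nM and 200 nM) in pH 7.4 HEPES with NaCl, MgCl2, DTT, BSA and Igepal. GST-hKRASG12C (1-169aa, 25-125 nM working solution) plus anti-GST-Tb was added for 30-60 min at 20 °C. Percent inhibition came from the HTRF 665/620 nm ratio.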

[3] = system: pERK after EGF stimulation in DLD1 cells; test: ERK phosphorylation assay (alphascreen pERK); assay type: cell-based; conditions: Homo sapiens, DLD-1, 2 h compound, 200 ng/ml hEGF for 5 minutes, read-out: ERK phosphorylation inhibition IC50
In short: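 DLD1 cells pretreated with test compounds for 2 h, then stimulated with 200 ng/ml hEGF for 5 min. Lysates assayed by AlphaScreen SureFire for ERK1/2 p-T202/Y204, read after 2 h at 25–28 °C. % inhibition relative to the stimulated-minus-unstimulated vehicle window.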

SMILES	pIC50 [1]	pIC50 [2]	pIC50 [3]
CCN1C(=O)COc2cc3nc(C)nc(N[C@H](C)c4cccc(C(F)(F)CO)c4F)c3cc21 [Compound 13, (R)-4-((1-(3-(1,1-difluoro-2-hydroxyethyl)-2-fluorophenyl)ethyl)amino)-6-ethyl-2-methyl-6H-[1,4]oxazino[3,2-g]quinazolin-7(8H)-one]	8.00 to 9.00	7.52 to 9.00	6.70 to 9.00
Cc1nc(N[C@H](C)c2cccc(C(F)(F)CO)c2F)c2cc3c(cc2n1)OC(C)(C)C(=O)N3C [Compound 18, (R)-4-((1-(3-(1,1-difluoro-2-hydroxyethyl)-2-fluorophenyl)ethyl)amino)-2,6,8,8-tetramethyl-6H-[1,4]oxazino[3,2-g]quinazolin-7(8H)-one]	8.00 to 9.00	7.52 to 9.00	6.70 to 9.00
Cc1nc(N[C@H](C)c2cccc(C(F)(F)CO)c2F)c2cc3c(cc2n1)OC1(CC1)C(=O)N3C [Compound 25, (R)-4′-((1-(3-(1,1-difluoro-2-hydroxyethyl)-2-fluorophenyl)ethyl)amino)-2′,6′-dimethylspiro[cyclopropane-1,8′-[1,4]oxazino[3,2-g]quinazolin]-7′(6′H)-one]	8.00 to 9.00	7.52 to 9.00	6.70 to 9.00
Cc1nc(N[C@H](C)c2cccc(C(F)(F)C(C)(C)O)c2F)c2cc3c(cc2n1)N(C)C(C)(C)C(=O)N3C [Compound 28, (R)-4-((1-(3-(1,1-difluoro-2-hydroxy-2-methylpropyl)-2-fluorophenyl)ethyl)amino)-2,6,8,8,9-pentamethyl-8,9-dihydropyrazino[2,3-g]quinazolin-7(6H)-one]	8.00 to 9.00	7.52 to 9.00	6.70 to 9.00
Cc1nc(N[C@H](C)c2cccc(C(F)(F)C(C)(C)O)c2F)c2cc3c(cc2n1)c(=O)n(C)c(=O)n3C [Compound 29, (R)-9-((1-(3-(1,1-difluoro-2-hydroxy-2-methylpropyl)-2-fluorophenyl)ethyl)amino)-1,3,7-trimethylpyrimido[4,5-g]quinazoline-2,4(1H,3H)-dione]	8.00 to 9.00	7.52 to 9.00	6.70 to 9.00
Cc1nc(N[C@H](C)c2cccc(C(F)(F)C(C)(C)O)c2F)c2cc3c(cc2n1)OC(C)(C)CN3C [Compound 34, (R)-1,1-Difluoro-1-(2-fluoro-3-(1-((2,6,8,8-tetramethyl-7,8-dihydro-6H-[1,4]oxazino [3,2-g]quinazolin-4-yl)amino)ethyl)phenyl)-2-methylpropan-2-ol]	8.00 to 9.00	6.89 to 7.51	6.70 to 9.00
Cc1nc(N[C@H](C)c2cccc(C(F)(F)CO)c2F)c2cc3c(cc2n1)OC(C)(C)CN3C [Compound 35, (R)-2,2-Difluoro-2-(2-fluoro-3-(1-((2,6,8,8-tetramethyl-7,8-dihydro-6H-[1,4]oxazino[3,2-g]quinazolin-4-yl)amino)ethyl)phenyl)ethan-1-ol]	8.00 to 9.00	7.52 to 9.00	6.70 to 9.00
Cc1nc(N[C@H](C)c2cccc(C(F)(F)C(C)(C)O)c2F)c2cc3c(cc2n1)OCC(C)(C)N3C [Compound 37, (R)-1,1-Difluoro-1-(2-fluoro-3-(1-((2,6,7,7-tetramethyl-7,8-dihydro-6H-[1,4]oxazino[3,2-g]quinazolin-4-yl)amino)ethyl)phenyl)-2-methylpropan-2-ol]	8.00 to 9.00	7.52 to 9.00	6.70 to 9.00
Cc1nc(N[C@H](C)c2cccc(C(F)(F)C(C)(C)O)c2F)c2cc3c(cc(C)c(=O)n3C)cc2n1 [Compound 38, (R)-4-((1-(3-(1,1-Difluoro-2-hydroxy-2-methylpropyl)-2-fluorophenyl)ethyl)amino)-2,6,8-trimethylpyrido[2,3-g]quinazolin-7(6H)-one]	8.00 to 9.00	7.52 to 9.00	6.70 to 9.00
Cc1nc(N[C@H](C)c2cccc(C(F)(F)C(C)(C)O)c2F)c2cc3c(cc2n1)nc(C)c(=O)n3C [Compound 39, (R)-4-((1-(3-(1,1-Difluoro-2-hydroxy-2-methylpropyl)-2-fluorophenyl)ethyl)amino)-2,6,8-trimethylpyrazino[2,3-g]quinazolin-7(6H)-one]	8.00 to 9.00	7.52 to 9.00	6.70 to 9.00
Cc1nc(N[C@H](C)c2cccc(C(F)(F)C(C)(C)O)c2F)c2cc3c(cc2n1)C(C)(C)CC(=O)N3C [Compound 42, (R)-4-((1-(3-(1,1-difluoro-2-hydroxy-2-methylpropyl)-2-fluorophenyl)ethyl)amino)-2,6,9,9-tetramethyl-8,9-dihydropyrido[2,3-g]quinazolin-7(6H)-one]	8.00 to 9.00	7.52 to 9.00	6.70 to 9.00
Cc1nc(N[C@H](C)c2cccc(C(F)(F)C(C)(C)O)c2F)c2cc3c(cc2n1)OCCN3C [Compound 45, (R)-1-(3-(1-((2,6-dimethyl-7,8-dihydro-6H-[1,4]oxazino[3,2-g]quinazolin-4-yl)amino)ethyl)-2-fluorophenyl)-1,1-difluoro-2-methylpropan-2-ol]	8.00 to 9.00	6.89 to 7.51	6.70 to 9.00
Cc1nc(N[C@H](C)c2cccc(C(F)(F)C(C)(C)O)c2F)c2cc3c(c(F)c2n1)OCC(=O)N3C [Compound 47, (R)-4-((1-(3-(1,1-difluoro-2-hydroxy-2-methylpropyl)-2-fluorophenyl)ethyl)amino)-10-fluoro-2,6-dimethyl-6H-[1,4]oxazino[3,2-g]quinazolin-7(8H)-one]	7.60 to 7.96	6.89 to 7.51	6.70 to 9.00
Cc1nc(N[C@H](C)c2cccc(C(F)(F)C(C)(O)CF)c2F)c2cc3c(cc2n1)OC(C)(C)C(=O)N3C (stereo partly drawn) [Compound 54, (R&S)-4-(((1R)-1-(2-fluoro-3-(1,1,3-trifluoro-2-hydroxy-2-methylpropyl)phenyl)ethyl)amino)-2,6,8,8-tetramethyl-6H-[1,4]oxazino[3,2-g]quinazolin-7(8H)-one]	8.00 to 9.00	7.52 to 9.00	6.70 to 9.00
CNCC(C)(O)C(F)(F)c1cccc([C@@H](C)Nc2nc(C)nc3cc4c(cc23)N(C)C(=O)C(C)(C)O4)c1F (stereo partly drawn) [Compound 55, (R&S)-4-(((1R)-1-(3-(1,1-difluoro-2-hydroxy-2-methyl-3-(methylamino)propyl)-2-fluorophenyl)ethyl)amino)-2,6,8,8-tetramethyl-6H-[1,4]oxazino[3,2-g]quinazolin-7(8H)-one]	8.00 to 9.00	7.52 to 9.00	6.70 to 9.00
Cc1nc(N[C@H](C)c2cccc(C(F)(F)C(C)(C)O)c2F)c2cc3c(cc2n1)N(C)C(=O)C31CCCC1 [Compound 58, (R)-4′-((1-(3-(1,1-difluoro-2-hydroxy-2-methylpropyl)-2-fluorophenyl)ethyl)amino)-2′,8′-dimethylspiro[cyclopentane-1,6′-pyrrolo[3,2-g]quinazolin]-7′(8′H)-one]	8.00 to 9.00	7.52 to 9.00	6.70 to 9.00
Cc1nc(N[C@H](C)c2cccc(C(F)(F)CO)c2F)c2cc3c(cc2n1)N(C)C(=O)C31CCCC1 [Compound 62, (R)-4′-((1-(3-(1,1-difluoro-2-hydroxyethyl)-2-fluorophenyl)ethyl)amino)-2′,8′-dimethylspiro[cyclopentane-1,6′-pyrrolo[3,2-g]quinazolin]-7′(8′H)-one]	8.00 to 9.00	7.52 to 9.00	6.70 to 9.00
COCCN1C(=O)C(C)(C)c2cc3nc(C)nc(N[C@H](C)c4cccc(C(F)(F)C(C)(C)O)c4F)c3cc21 [Compound 63, (R)-4-((1-(3-(1,1-difluoro-2-hydroxy-2-methylpropyl)-2-fluorophenyl)ethyl)amino)-6-(2-methoxyethyl)-2,8,8-trimethyl-6,8-dihydro-7H-pyrrolo[2,3-g]quinazolin-7-one]	8.00 to 9.00	7.52 to 9.00	6.70 to 9.00
CCN1C(=O)C(C)(C)c2cc3nc(C)nc(N[C@H](C)c4cccc(C(F)(F)C(C)(C)O)c4F)c3cc21 [Compound 64, (R)-4-((1-(3-(1,1-difluoro-2-hydroxy-2-methylpropyl)-2-fluorophenyl)ethyl)amino)-6-ethyl-2,8,8-trimethyl-6,8-dihydro-7H-pyrrolo[2,3-g]quinazolin-7-one]	8.00 to 9.00	7.52 to 9.00	6.70 to 9.00
